8 compounds from patent US6211170A, “Azetidinone derivatives for the treatment of HCMV infections” (Boehringer Ingelheim (Canada) Ltd., priority 1998, dated 2001) can be followed below.

The test system of data set [1] is HCMV (strain AD169, ATCC VR-538). The data set is described as follows: Plaque Reduction Assay (PRA) in HCMV-infected Hs-68 cells. Format: cell-based, human cytomegalovirus (HCMV). As to the method: B. Plaque Reduction Assay (PRA):
Hs-68 cells (ATCC # CRL 1635) were seeded in 12-well plates at 83,000 cells/well in 1 mL of DMEM medium (Gibco Canada Inc.) supplemented with 10% fetal bovine serum (FBS, Gibco Canada Inc.). The plates were incubated for 3 days at 37° to allow the cells to reach 80-90% confluency prior to the assay.
The medium was removed from the cells by aspiration. The cells were then infected with approximately 50 PFU of HCMV (strain AD169, ATCC VR-538) in DMEM medium supplemented with 5% inactivated FBS (assay medium). (DMEM medium is commercially available and has been described by R. Dulbecco et al., Virology 1959, 8, 396.) The virus was allowed to adsorb to cells for 2 h at 37°. Following viral adsorption, the medium was removed from the wells by aspiration. The cells were then incubated with or without 1 mL of appropriate concentrations of test reagent in assay medium. Occasionally, test compounds were added 24 h post-infection. After 4 days of incubation at 37°, the medium was exchanged with fresh medium containing test compound and 4 days later the cells were fixed with 1% aqueous formaldehyde and stained with a 2% violet solution in 20% ethanol in water. Microscopic plaques were counted using a stereomicroscope. Drug effects were calculated as a percent reduction in the number of plaques in the presence of each drug concentration compared to the number observed in the absence of drug. Ganciclovir was used as a positive control in all experiments.
For orientation: Plaque reduction counts the foci of infection that form in a cell layer.

The nature of data set [2]: Cytotoxicity, tetrazolium salt (MTT) metabolic assay. It counts as cell-based. As to conditions: cytotoxic effects, read-out: TC50 (the source's name). As to the method: Cytotoxic effects noted as TC50 in the following tables were determined according to the tetrazolium salt (MTT) metabolic assay, F. Denizot and F. Lang, J. Immun. Meth., 1986, 89, 271.
The target of another data set is T1, HCMV NO protease (Human cytomegalovirus, UniProt P16753).
T1 construct: HCMV NO protease
The data set is described as follows: HCMV NO Protease Assay (fluorogenic substrate cleavage). Format: biochemical. As to conditions: HCMV NO protease 100 nM, substrate 5 μM, pH 8, 2.5 h at 30°. As to the method: This particular assay determines the ability of a test compound to inhibit the activity (IC50) of HCMV protease. More specifically, in the assay described herein, the inhibitory activity of the test compound is evaluated on the basis of its ability to interfere with the HCMV NO protease cleavage of a fluorogenic peptide substrate which in turn is based on the maturation cleavage site of the enzyme.
1. HCMV NO Protease Assay
Material & Methods: Fluorescence measurements were recorded on a Perkin-Elmer LS-50B spectrofluorimeter equipped with a plate reader accessory. UV measurements were recorded on a Thermomax® microplate reader from Molecular Devices Corporation, Menlo Park, Calif., USA.
HCMV NO protease was assayed with an internally quenched fluorogenic substrate based on the maturation cleavage site (Abz-[…](3-NO2)R--OH, kcat /KM =260 M^-1 s^-1). The fluorescence increase upon cleavage of the Ala-Ser amide bond was monitored using excitation λ=312 nm (slit 2.5 nm) and emission λ=415 nm (slit 5 nm). A protocol adaptable to a 96-well plate format was designed for the determination of IC50 values of inhibitors.
After this period, enzymatic hydrolysis of the fluorogenic substrate in the absence of inhibitor led to about a 30% conversion. Quenching was not required before fluorescence measurement since the total scanning time by the plate reader accessory was brief relative to the duration of the reaction. The aqueous incubation buffer contained 50 mM tris(hydroxymethyl)aminomethane.HCl pH 8, 0.5M Na2 SO4, 50 mM NaCl, 0.1 mM EDTA, 1 mM tris(2-carboxyethyl)phosphine.HCl, 3% v/v DMSO and 0.05% w/v casein. The final concentrations of HCMV NO protease (expressed in terms of total monomer concentration) and substrate were 100 nM and 5 μM respectively. IC50 values were obtained through fitting of the inhibition curve to a competitive inhibition model using SAS NLIN procedure. The mode of inhibition was determined by measurements of the initial rates (in cuvettes) at various substrate concentrations in the buffer as described above. The IC50 values listed in the following tables were obtained according to this assay.

Where [3] appears, read: Human betaherpesvirus 5, Hs68, 192 h, plaque reduction, HCMV strain AD169, Hs-68 cells, 8 days, read-out: EC50.

The EC50 is the midpoint of the concentration-response curve. Usually IC50 stands for the concentration needed to halve the response being measured. Read a low IC50 as greater potency.

Like-named read-outs stand apart in the source and are kept apart here. Where only a bound is given, the exact number is not on record here.

T1 sequence (P16753 1-256): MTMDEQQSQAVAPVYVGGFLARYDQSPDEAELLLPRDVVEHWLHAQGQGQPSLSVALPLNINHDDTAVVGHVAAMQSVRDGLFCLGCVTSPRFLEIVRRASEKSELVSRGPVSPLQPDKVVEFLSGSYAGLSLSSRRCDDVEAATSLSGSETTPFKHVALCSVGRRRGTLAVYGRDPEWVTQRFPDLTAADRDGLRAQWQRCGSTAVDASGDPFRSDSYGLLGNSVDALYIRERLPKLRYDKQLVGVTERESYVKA

Consider `O=C(NC[C@H]1CC(=O)N1C(=O)NCc1ccccc1)c1ccccc1` [Entry 204], for which the EC50 in data set [1] (setting [3]) is 120 µM. Also, the CC50 in data set [2] is greater than 250 µM. Further, inhibition against HCMV NO protease was half-maximal at 2.6 µM (IC50).

Consider `CC[C@@H](NC(=O)N1C(=O)C[C@@H]1COc1ccccn1)c1ccccc1` [Entry 101], for which, in data set [1] (setting [3]), the EC50 stood at 55 µM. Also, in data set [2], the CC50 came out at 151 µM. The same compound returned a half-maximal inhibitory concentration (IC50) against HCMV NO protease of 8.4 µM.

With `CN(Cc1ccc(C(=O)OCc2ccccc2)cc1)C(=O)N1C(=O)C[C@@H]1CSc1ncccn1` [Entry 304], the concentration for a half-maximal effect (EC50) in data set [1] (setting [3]) came to 120 µM. The CC50 in data set [2] was greater than 250 µM. At HCMV NO protease, this compound came in with an IC50 of 2.5 µM.

For `CC[C@@H](NC(=O)N1C(=O)C[C@@H]1COC(=O)c1ccccc1)c1ccccc1` [Entry 145], the EC50 in data set [1] (Human betaherpesvirus 5, AD169, Hs68, 192 h) was found to be 250 µM. Moreover, in data set [2], the CC50 was 250 µM. In addition, the IC50 against HCMV NO protease is 0.12 µM.

For `CC[C@@H](NC(=O)N1C(=O)[C@@H](C)[C@@H]1CSc1ccoc1C)c1ccccc1` [Entry 115], the 50% effective concentration (EC50) in data set [1] (setting [3]) was determined as 85 µM. Moreover, the CC50 in data set [2] was greater than 250 µM. The same compound returned a concentration for half-maximal inhibition (IC50) against HCMV NO protease of 4.2 µM.

As to `CC[C@@H](NC(=O)N1C(=O)[C@@H](C)[C@@H]1CSC1CCCC1)c1ccccc1` [Entry 121], the EC50 in data set [1] (setting [3]) stood at 150 µM. Also, in data set [2], the CC50 is greater than 250 µM. In addition, the IC50 at HCMV NO protease came out at 4.3 µM.

Regarding `CN(Cc1ccc(C(F)(F)F)cc1)C(=O)N1C(=O)C[C@@H]1CSc1nccn1C` [Entry 314], in data set [1] (setting [3]), the EC50 was greater than 250 µM. Further, in data set [2], the CC50 is greater than 250 µM. The compound further yielded a 50% inhibitory concentration (IC50) on HCMV NO protease of 5.5 µM.

For `CN(Cc1ccc(C(F)(F)F)cc1)C(=O)N1C(=O)C[C@@H]1CSc1nc2ncccc2s1` [Entry 316], in data set [1] (setting [3]), the 50% effective concentration (EC50) is 14 µM. Further, the CC50 in data set [2] was greater than 18 µM. The IC50 on HCMV NO protease was 1.6 µM.
